Test results published in article PMC3577712 (PLoS ONE, 2013).
pEC50, pIC50: −log10 of the molar value.

Key:
Bac-NA^WT = Bac-NA^WT (Influenza A virus, UniProt Q6DPL2); assay: biochemical
[1] = test system: influenza A/Udorn/72 (H3N2); assay: microbe, parasite or virus in culture; type: cell-based; details: H3N2, MDCK, read-out: EC50 for viral plaque formation
[2] = test system: influenza A/WSN/33 (H1N1); assay: microbe, parasite or virus in culture; type: cell-based; details: MDCK, read-out: EC50 for viral plaque formation
N2 NA = N2 NA (Influenza A virus, UniProt P0DOF9); assay: biochemical
A/WSN/33 = type: cell-based, influenza A virus
A/WSN/33 (H1N1) = type: cell-based, influenza A virus
NA = details: cited from earlier work

N2 NA, sequence (P0DOF9 whole entry, looked up): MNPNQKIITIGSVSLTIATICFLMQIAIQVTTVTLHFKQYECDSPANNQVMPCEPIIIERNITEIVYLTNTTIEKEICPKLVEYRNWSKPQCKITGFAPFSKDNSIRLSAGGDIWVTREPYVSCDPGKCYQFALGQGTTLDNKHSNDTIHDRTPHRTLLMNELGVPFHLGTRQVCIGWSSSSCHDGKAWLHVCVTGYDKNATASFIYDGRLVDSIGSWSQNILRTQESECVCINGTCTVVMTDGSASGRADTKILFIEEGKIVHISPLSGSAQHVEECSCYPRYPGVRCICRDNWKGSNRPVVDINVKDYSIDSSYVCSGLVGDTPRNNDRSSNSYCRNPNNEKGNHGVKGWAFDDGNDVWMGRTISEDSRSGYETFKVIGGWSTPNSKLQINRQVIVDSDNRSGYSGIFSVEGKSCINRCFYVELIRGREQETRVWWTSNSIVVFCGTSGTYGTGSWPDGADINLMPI
Bac-NA^WT, sequence (Q6DPL2 63-449 limits assumed): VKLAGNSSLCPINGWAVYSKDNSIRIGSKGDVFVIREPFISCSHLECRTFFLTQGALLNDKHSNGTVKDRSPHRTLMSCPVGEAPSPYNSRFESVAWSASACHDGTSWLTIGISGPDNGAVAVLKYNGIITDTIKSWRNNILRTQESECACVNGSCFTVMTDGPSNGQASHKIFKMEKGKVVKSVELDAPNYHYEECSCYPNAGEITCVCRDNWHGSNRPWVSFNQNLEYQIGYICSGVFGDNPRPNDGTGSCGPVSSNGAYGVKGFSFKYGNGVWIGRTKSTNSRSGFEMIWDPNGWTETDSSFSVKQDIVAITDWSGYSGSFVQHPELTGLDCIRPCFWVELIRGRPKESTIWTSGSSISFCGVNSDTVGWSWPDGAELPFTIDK

Molecule	pIC50 (Bac-NA^WT)	pEC50 [1]	pEC50 [2]	pIC50 (N2 NA)	Influenza-induced cytopathic effect (A/WSN/33)	Virus yields (fluorogenic signal of NA activity) (A/WSN/33 (H1N1))	pIC50 (NA)
Nc1c(S(=O)(=O)O)cc(Nc2cccc(S(=O)(=O)CCOS(=O)(=O)O)c2)c2c1C(=O)c1ccccc1C2=O [RB19, Remazol Brilliant Blue R]	5.47	5.55	5.57	4.82	inhibits the influenza-induced cytopathic effect	dramatically reduced virus yields	
DANA							5.00
